What all share (assay): NCI tumour cell line growth inhibition, 48 h
Assay [1] has as its system PC-3 prostate.
Assay [2] deals with HS 578T breast.
The test system of assay [3] is MDA-MB-231 breast.
Assay [4] relates to SNB-75 CNS.
For assay [5], the system named is CAKI-1 renal.
Assay [6] concerns U251 CNS.
The subject of assay [7] is K-562 leukemia.
The subject of assay [8] is T-47D breast.
The test system of assay [9] is SK-MEL-2 melanoma.
Assay [10] concerns SK-MEL-28 melanoma.

Each structure is given as a SMILES string. Values joined by “and” are separate entries in the source; they are usually repeats but may differ in a detail not shown here. Identical values can stand only once.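 A five-concentration, 48-hour dose response in 96-well plates underlies each endpoint, interpolated linearly between surrounding concentrations. GI50 is the concentration that inhibits growth by half. TGI: concentration producing complete growth inhibition.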

Among the data in PubChem BioAssay (NCI) are GI50 and TGI values, retold here.

In the case of `c1ccc(P(CCP(CCP(c2ccccc2)c2ccccc2)c2ccccc2)CCP(c2ccccc2)c2ccccc2)cc1` (centres undefined), the GI50 was greater than 10 µM in [1]; > 10 µM and 3.58 µM in assay [3]; 4.55 µM and 1.91 µM in [4]; > 10 µM and 3 µM in assay [5]; > 10 µM and 1.04 µM in assay [6]; > 10 µM and 2.01 µM in [10]. The TGI in [1], in assay [2], in assay [3], in [4], in [5] and in assay [6] was greater than 10 µM throughout. The TGI in [7] was greater than 10 µM; in assay [8], 4.79 µM; in assay [9] it was greater than 10 µM; in assay [10] it was greater than 10 µM.

Turning to `Nc1n[nH]c2cccc(C#Cc3cccc(C(=O)Nc4cc(CN5CCOCC5)cc(C(F)(F)F)c4)c3)c12`, the GI50 in [1] is 4.39 µM; in assay [2], 2.75 µM; in assay [3] it was 1.65 µM; in assay [4] it was 5.51 µM; in assay [5], 5.11 µM; in assay [6], 5.57 µM. Also, the GI50 in assay [7] was 0.0651 µM; in assay [8], 2.23 µM; in assay [9], 2.62 µM; in [10], 2.99 µM. Besides, the TGI is 19 µM in [1]; 34.1 µM in assay [2]; 6.8 µM in assay [3]; 19.3 µM in [4]; 19.4 µM in assay [5]; 19.2 µM in [6]. The TGI in assay [7] worked out at 2.41 µM; in assay [8] it was 10.2 µM; in assay [9], 10.6 µM; in assay [10], 12.1 µM.

In the case of `CCOC(=O)c1nc(Nc2ccc(Cl)cc2)c2ccccc2n1`, the GI50 was 11.6 µM in assay [1]; 11.3 µM in assay [2]; 14.1 µM in assay [3]; 11.9 µM in [4]; 7.73 µM in [5]; 8.86 µM in assay [6]. Further, the GI50 is 46 µM in [7], 8.36 µM in assay [8], 13.2 µM in assay [9] and 7.5 µM in assay [10]. For the same compound, the TGI in assay [1] is greater than 50 µM; in [2] it was 27.2 µM; in assay [3] it was 42 µM; in [4], 29.5 µM; in assay [5], 16.3 µM; in [6], 18.5 µM. Further, the TGI in assay [7] was greater than 50 µM; in [8], 22.5 µM; in assay [9], 30.4 µM; in assay [10], 17.6 µM.

Turning to `CCN(CC)c1ccc(C(=N)c2ccc(N(C)C)cc2)cc1`, the GI50 in [1] is 0.284 µM; in assay [2], 0.19 µM; in assay [3], 1.33 µM; in assay [4], 2.26 µM; in [5], 0.246 µM; in assay [6] it was 1.33 µM. In addition, the GI50 in [7] is 0.127 µM; in assay [8], 1.27 µM; in assay [10] it was 0.384 µM. Besides, the TGI in assay [1] was 7.05 µM; in assay [2], 2.67 µM; in assay [3], 3.87 µM; in [4], greater than 21.7 µM; in assay [5] it was 7.73 µM; in assay [6], 7.57 µM. For the same compound, the figures for the TGI in [7], in [8] and in [10] were 12.8 µM, 9.42 µM and 7.13 µM, respectively.

`Cc1cn2c(/C=N/Nc3ccccn3)c(-c3ccc(Cl)c([N+](=O)[O-])c3)nc2s1`: the GI50 in [1] is 20.8 µM; in [2], 12 µM; in assay [3] it was 6.73 µM; in assay [5], 39 µM; in assay [6], 8.22 µM; in assay [7] it was 26.7 µM. The GI50 in [8] is greater than 50 µM; in [9] it was 21.2 µM; in [10] it was 26.5 µM. For the same compound, the TGI in assay [1] is greater than 50 µM; in assay [2], 39.4 µM; in [3] it was 18.2 µM; in assay [5], greater than 50 µM; in assay [6], 15.4 µM; in [7], greater than 50 µM. In addition, the TGI in assay [8], in [9] and in assay [10] was greater than 50 µM each time.

Take `COCCNc1cc(NC(=O)N2CCCc3cc(CN4CCN(C)CC4=O)c(C=O)nc32)ncc1C#N`: the GI50 is greater than 50 µM in assay [1]; 23.7 µM in assay [2]; 44.8 µM in [3]; 16 µM in assay [4]; greater than 50 µM in assay [5]; greater than 50 µM in assay [6]. The GI50 is 46.5 µM in assay [8], 36.6 µM in assay [9] and greater than 50 µM in [10]. Further, the TGI in assay [1], in assay [2], in assay [3], in assay [4], in assay [5] and in [6] was greater than 50 µM each time. The TGI in [8], in assay [9] and in assay [10] was greater than 50 µM in each case.

As to `Nc1c(C(=O)Nc2ccccc2)sc2nc3c(cc12)CN(Cc1ccccc1)CC3`, the GI50 is 27.1 µM in assay [1]; 2.07 µM in assay [2]; 5.81 µM in [3]; 19.7 µM in assay [5]; 13.9 µM in [6]; 9.1 µM in assay [7]. Also, the figures for the GI50 in [8], in [9] and in assay [10] were 16.2 µM, 20.3 µM and 23.2 µM, respectively. In addition, the TGI is greater than 100 µM in assay [1]; 7.55 µM in assay [2]; greater than 100 µM in assay [3]; greater than 100 µM in assay [5]; greater than 100 µM in assay [6]; greater than 100 µM in [7]. Moreover, the TGI in assay [8], in assay [9] and in [10] was greater than 100 µM in each case.

For the compound `COc1cc(C(=O)/C=C/c2cccnc2Nc2ccccc2)cc(OC)c1OC`, the GI50 in assay [1] was 1.1 µM; in assay [2] it was 2.15 µM; in assay [3], 1.4 µM; in assay [4] it was 1.13 µM; in assay [6], 1.12 µM; in [8], 1.43 µM. Moreover, the values for the GI50 in assay [9] and in assay [10] were 1.66 µM and 1.58 µM, respectively. Further, the TGI in assay [1] was 3.18 µM; in [2] it was 7.93 µM; in [3], 3.09 µM; in [4], 2.34 µM; in assay [6] it was 2.39 µM; in [8], 3.07 µM. In addition, the TGI in assay [9] is 3.4 µM; in [10], 2.93 µM.
